Test results taken from US9707281B2, “Pharmaceutical compositions and methods for digesting atherosclerotic plaques” (Northwestern University, priority 2010, dated 2017).

Test system: Human arterial plaque samples
Test: in vitro dissolution and digestion of atherosclerotic plaque specimens (percent reduction of plaque weight)
Conditions: EDTA 0.5-2 mg/ml, β-cyclodextrin 1-100 mMol, tPA 0.5-2 mg/ml, p<0.05
Protocol: Atherosclerotic plaques from surgical endarterectomies were obtained from various anatomic sites. All experiments were performed by cutting a given plaque into equal parts by weight then exposing them to various agents alone and in combination to determine the most optimal digestion solution. The optimal concentration and conditions for plaque dissolution and digestion were determined for ethylenediaminetetraacetic acid (EDTA), β-cyclodextrin, tPA, collagenase type I, III, IV, and V. Weights of each specimen were obtained prior to exposure of each solution and at different time points to determine percent of digested versus undigested plaque. Additional variables that were assessed and optimized include: 1) different combinations of EDTA, β-cyclodextrin, and the collagenases, 2) temperature, 3) pH, and 4) agitation.
Atherosclerotic plaques were obtained from patients undergoing endarterectomies. The optimal concentration and conditions for plaque dissolution and digestion were determined for ethylenediaminetetraacetic acid (EDTA), β-cyclodextrin, and collagenase type I, III, IV, and V. Variables that were assessed included: 1) combination of different agents, 2) time, 3) temperature, 4) pH, and 5) agitation. Weight of each specimen was measured at different time points to determine percent of undigested plaque. […]

Row | Compound | reduction in plaque weight, agent alone [%]
1 | OC[C@H]1O[C@@H]2O[C@H]3[C@H](O)[C@@H](O)[C@@H](O[C@H]4[C@H](O)[C@@H](O)[C@@H](O[C@H]5[C@H](O)[C@@H](O)[C@@H](O[C@H]6[C@H](O)[C@@H](O)[C@@H](O[C@H]7[C@H](O)[C@@H](O)[C@@H](O[C@H]8[C@H](O)[C@@H](O)[C@@H](O[C@H]1[C@H](O)[C@H]2O)O[C@@H]8CO)O[C@@H]7CO)O[C@@H]6CO)O[C@@H]5CO)O[C@@H]4CO)O[C@@H]3CO [β-cyclodextrin] | 2
2 | O=C(O)CN(CCN(CC(=O)O)CC(=O)O)CC(=O)O [EDTA, ethylenediaminetetraacetic acid] | 15
